Assay results: US10537602B2, “Feed for fish” (NUTRECO IP ASSETS B.V., priority 2006, dated 2020)

What was measured:
Type in all cases: in vivo
[1] = test system: Atlantic salmon (Salmo salar); test: Example 1 feeding study: growth and feed conversion of fish on feed with carvacrol or Salvia officinalis extract; conditions: for Final weight / Feed conversion ratio / Specific growth rate: 67 days, triplicate, Salvia = Salvia officinalis extract; for Final weight: initial weight about 170 g, sea water 11.8° C.
Procedure: (§1) Growth rate is expressed as percentage increase in body mass from day to day (Specific Growth Rate, SGR). This is calculated as:
(§2) [formula] FinalW=final weight InitW=initial weight Days=time from measuring initial weight to final weight
(§3) The common term to describe this is Feed Conversion Ratio (FCR) defined as: FCR=Amount of feed fed (kg)/Net growth of the fish (kg)
A control feed was prepared from fish meal (407.4 g), soybean meal (55.8 g), corn gluten (196.1 g), wheat (88.0 g), fish oil (247.3 g), mineral and vitamin premixes (3.8 g), yttrium premix (1.0 g, used to measure lipid digestibility as discussed below) and astaxanthin preparation (0.6 g). Pellets were extruded using the process explained above and coated with the fish oil.
Test feeds containing 0.1 wt % and 0.2 wt % carvacrol formulation (containing 50 wt % carvacrol and 50 wt % silica carrier) were prepared. The amount of active substance was 500 and 1000 mg per kg feed, respectively. In the comparison feeds, the amount of wheat was reduced to 87.0 g and 86.0 g respectively. The carvacrol formulation was added with the other microingredients to the mixer before preconditioning.
Test feeds containing 0.1 wt % and 0.2 wt % formulation of Salvia officinalis salvia extract (containing 50 wt % salvia extract and 50 wt % silica carrier) were prepared in a similar way.
The feed was fed to Atlantic salmon (Salmo salar) weighing 169 g (±3 g) at the onset of the study. The fish was stocked in tanks (1 m×1 m). There were 30 fish in each tank. Sea water temperature was 11.8° C. (±0.5° C.). The fish were fed for 67 days. The study was run in triplicate.

[2] = test system: Atlantic salmon (Salmo salar); test: Example 3 apparent digestibility of protein, C16:0, saturated fatty acids and total lipid; conditions: for ADC protein (%) / ADC C16:0 (%) / ADC saturated fatty acids (%) / ADC total lipid (%): added as 100% oil, 96 days, one tank, Salvia lavandulifolia; for ADC protein (%): 8.9° C.
Procedure: (§4) To achieve the above objects, additives that can increase the digestibility of fat and or protein are of value. This can be measured by the “Apparent Digestibility Coefficient”, calculated as: […]
(§5) Yttrium is added to the diet for the purpose of calculating ADC, but is otherwise not a necessary component of fish feed.
Control feed was prepared from South-American fish meal (526.2 g), soybean meal (40.0 g), corn gluten (79.0 g), wheat (120.4 g), South-American fish oil (230.3 g), mineral and vitamin premixes (2.5 g), yttrium premix (1.0 g), and astaxanthin preparation (0.6 g). Pellets were extruded using the process explained above and coated with the fish oil.
Test feeds were prepared containing carvacrol and/or salvia extract (Salvia lavandulifolia). Carvacrol and/or salvia extract were each added as 100% oil. Two different inclusion levels of separate carvacrol and salvia extract (0.5 g/kg and 1.0 g/kg) were tested.
Two test feeds were prepared with a combination of carvacrol and salvia extract. The inclusion levels were 1.0 g carvacrol and 0.2 g/kg salvia extract, and 0.5 g/kg carvacrol and 0.5 g/kg salvia extract, respectively. The carvacrol oil and/or salvia extract was mixed with the fish oil and coated onto the surface of the pellets by vacuum coating after drying of the pellets.
Pellet size was 3 mm for all feeds.
The feed was fed to Atlantic salmon (Salmo salar) weighing 156 g (±13 g) at the onset of the study. The fish was stocked in tanks holding 100 L water. There were 25 fish in each tank. Sea water temperature was 8.9° C.±0.2° C. The fish were fed for 96 days. The study was run with four control groups and one tank each for the different inclusion levels of carvacrol, salvia extract or combined carvacrol and salvia.
Apparent digestibility was determined for protein, the saturated fatty acid C16:0, the sum of all saturated fatty acids and the total lipid.

[3] = test system: Atlantic salmon (Salmo salar); test: Example 2 lipid digestibility (Apparent Digestibility Coefficient, yttrium marker); conditions: for ADC (%) lipid: Example 2, Salvia = Salvia lavandulifolia extract
Procedure: as §4, §5
(§6) Control and comparison feeds were prepared as in Example 1. Salvia lavandulifolia salvia extract (CAS 8016-65-7) was used.
(§7) The feed was fed to Atlantic salmon (Salmo salar) weighing 199 g (±2.4 g) at the onset of the study. The fish were stocked in tanks (1 m×1 m). There were 35 fish in each tank. Sea water temperature was 12° C. The fish were fed for 82 days. The study was run in triplicate.

[4] = test system: Atlantic salmon (Salmo salar); test: Example 2 feeding study: growth and feed conversion of fish on feed with carvacrol or Salvia lavandulifolia extract; conditions: for Feed conversion ratio / Specific growth rate / Final weight: 82 days, Salvia = Salvia lavandulifolia extract; for Final weight: initial weight about 199 g, sea water 12° C., triplicate
Procedure: as §1, §2, §3, §6, §7

[5] = with increasing amounts in feed, Example 1, in words
[6] = with increasing amounts in feed, Example 3, in words
[7] = with increasing amounts in feed, Example 2, in words

With Cc1ccc(C(C)C)cc1O [Carvacrol, 2-methyl-5(1-methylethyl)-phenol] the “Final weight” value ([1]; 0.05 wt % additive in feed) was 339 ± 18 g, the Feed conversion ratio ([1]; 0.05 wt % additive in feed) was 0.91 ± 0.05 and the Specific growth rate ([1]; 0.05 wt % additive in feed) was 1.04 ± 0.05. The “Final weight” value ([1]; 0.1 wt % additive in feed) was 354 ± 6 g, the Feed conversion ratio ([1]; 0.1 wt % additive in feed) was 0.87 ± 0.03 and the Specific growth rate ([1]; 0.1 wt % additive in feed) was 1.09 ± 0.03. For the same molecule, the feed utilisation [1, 5] was “improved”, the fish growth [1, 5] was “increased” and the “ADC protein (%)” value ([2]; 0.05 wt % additive in feed) was 88.8%. The “ADC C16:0 (%)” value ([2]; 0.05 wt % additive in feed) was 75.3%, the “ADC saturated fatty acids (%)” value ([2]; 0.05 wt % additive in feed) was 75.5% and the “ADC total lipid (%)” value ([2]; 0.05 wt % additive in feed) was 89.2%. The “ADC protein (%)” value ([2]; 0.10 wt % additive in feed) was 87.6%, the “ADC C16:0 (%)” value ([2]; 0.10 wt % additive in feed) was 74.0% and the “ADC saturated fatty acids (%)” value ([2]; 0.10 wt % additive in feed) was 74.4%. For the same molecule, the “ADC total lipid (%)” value ([2]; 0.10 wt % additive in feed) was 89.2%, the lipid digestibility [2, 6] was “increased” and the protein digestibility [2, 6] was “increased”. For the same molecule, the “ADC (%) lipid” value ([3]; 0.05 wt % additive in feed) was 95.78%, the “ADC (%) lipid” value ([3]; 0.1 wt % additive in feed) was 97.65% and the lipid digestibility [3, 7] was “increased”. The Feed conversion ratio ([4]; 0.05 wt % additive in feed) was 0.68, the Specific growth rate ([4]; 0.05 wt % additive in feed) was 1.16 and the “Final weight” value ([4]; 0.05 wt % additive in feed) was 512 g. The Feed conversion ratio ([4]; 0.1 wt % additive in feed) was 0.70, the Specific growth rate ([4]; 0.1 wt % additive in feed) was 1.13 and the “Final weight” value ([4]; 0.1 wt % additive in feed) was 503 g. For the same molecule, the feed utilisation [4, 7] was “improved” and the fish growth [4, 7] was “increased”.
